{"source": "ChEMBL document CHEMBL5226319", "about": "“Small molecule approaches to treat autoimmune and inflammatory diseases (Part III): Targeting cytokines and cytokine receptor complexes” (Bioorg Med Chem Lett, 2021)", "key": {"[1]": {"experiment": "Inhibition of human CXCL1 protein secretion in IL-36 gamma-stimulated HaCaT cells", "assay_type": "cell-based"}, "[2]": {"target": "T1, Interleukin-33 (Homo sapiens, UniProt O95760)", "T1 sequence (O95760 whole entry)": "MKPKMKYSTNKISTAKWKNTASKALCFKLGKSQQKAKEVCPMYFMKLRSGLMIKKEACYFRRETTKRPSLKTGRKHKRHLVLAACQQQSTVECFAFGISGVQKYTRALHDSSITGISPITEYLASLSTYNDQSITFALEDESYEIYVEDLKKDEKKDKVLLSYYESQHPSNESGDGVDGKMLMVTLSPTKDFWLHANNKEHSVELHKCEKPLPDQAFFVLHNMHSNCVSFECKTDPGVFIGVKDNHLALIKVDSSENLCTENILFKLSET", "experiment": "Inhibition of human IL-33 incubated for 1 hrs by AlphaLISA assay"}, "[3]": {"target": "T2, Interleukin-1 receptor type 1 (Homo sapiens, UniProt P14778)", "T2 sequence (P14778 whole entry)": "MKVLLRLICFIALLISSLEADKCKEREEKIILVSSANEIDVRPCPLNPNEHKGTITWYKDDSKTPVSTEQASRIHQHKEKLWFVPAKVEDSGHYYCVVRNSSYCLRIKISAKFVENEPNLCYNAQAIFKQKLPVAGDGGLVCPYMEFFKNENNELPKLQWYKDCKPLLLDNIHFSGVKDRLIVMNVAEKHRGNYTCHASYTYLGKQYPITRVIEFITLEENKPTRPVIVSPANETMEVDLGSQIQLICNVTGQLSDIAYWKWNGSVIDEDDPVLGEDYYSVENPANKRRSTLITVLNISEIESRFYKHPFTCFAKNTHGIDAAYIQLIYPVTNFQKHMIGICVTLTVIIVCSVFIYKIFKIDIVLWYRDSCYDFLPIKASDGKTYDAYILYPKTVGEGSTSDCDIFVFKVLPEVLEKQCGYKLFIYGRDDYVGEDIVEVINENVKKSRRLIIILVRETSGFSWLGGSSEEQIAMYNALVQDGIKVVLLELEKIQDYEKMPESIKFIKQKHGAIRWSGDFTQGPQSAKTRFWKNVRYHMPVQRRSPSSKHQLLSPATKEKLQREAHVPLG", "experiment": "Inhibition of human IL1-R1 assessed as dissociation constant incubated for 5 mins by SPR analysis"}, "[4]": {"experiment": "Inhibition of IL-6/gp130 (unknown origin) by SPR analysis", "parameters": "species or system Homo sapiens"}, "[5]": {"experiment": "Inhibition of OSMR/gp130 (unknown origin) by SPR analysis", "parameters": "species or system Homo sapiens"}, "[6]": {"target": "T3, Interleukin-4 (Homo sapiens, UniProt P05112)", "T3 sequence (P05112 whole entry)": "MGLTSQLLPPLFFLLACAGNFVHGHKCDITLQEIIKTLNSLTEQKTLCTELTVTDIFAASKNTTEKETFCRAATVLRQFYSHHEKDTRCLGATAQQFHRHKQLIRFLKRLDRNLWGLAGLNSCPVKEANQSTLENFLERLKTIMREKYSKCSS", "experiment": "Inhibition of IL-4 (unknown origin) in human THP-1 cells assessed as inhibition of STAT6 phosphorylation by HEK-Blue assay", "assay_type": "cell-based"}, "[7]": {"target": "T3, Interleukin-4", "experiment": "Inhibition of IL-4 (unknown origin) assessed as dissociation constant by SPR analysis"}, "[8]": {"experiment": "Binding affinity to gp130 (unknown origin) assessed as dissociation constant by SPR analysis", "parameters": "species or system Homo sapiens"}, "[9]": {"target": "T4, Interleukin-2 receptor subunit alpha (Homo sapiens, UniProt P01589)", "T4 sequence (P01589 whole entry)": "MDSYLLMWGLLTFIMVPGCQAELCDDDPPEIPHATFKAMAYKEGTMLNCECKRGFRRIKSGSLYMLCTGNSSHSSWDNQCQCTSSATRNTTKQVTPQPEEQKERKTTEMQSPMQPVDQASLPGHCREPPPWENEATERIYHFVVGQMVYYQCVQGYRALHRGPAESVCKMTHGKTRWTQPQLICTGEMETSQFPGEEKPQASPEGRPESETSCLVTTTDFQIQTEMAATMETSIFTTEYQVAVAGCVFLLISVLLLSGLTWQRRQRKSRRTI", "experiment": "Inhibition of IL-2R alpha (unknown origin)"}, "[10]": {"species": "Homo sapiens", "experiment": "(§1) Binding affinity to gp130 (unknown origin) assessed as fold increase"}, "[11]": {"target": "T5, Interleukin-18 (Homo sapiens, UniProt Q14116)", "T5 sequence (Q14116 whole entry)": "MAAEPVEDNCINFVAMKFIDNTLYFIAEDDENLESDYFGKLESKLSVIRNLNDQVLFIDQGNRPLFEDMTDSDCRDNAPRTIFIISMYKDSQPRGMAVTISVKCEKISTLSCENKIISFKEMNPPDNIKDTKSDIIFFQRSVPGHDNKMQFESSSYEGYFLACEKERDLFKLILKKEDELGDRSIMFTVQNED", "experiment": "Inhibition of human IL-18 expressed in Escherichia coli BL21(DE3) cells incubated for 18 hrs"}, "[12]": {"experiment": "as §1", "parameters": "species or system Homo sapiens"}}}
{"smiles": "COC(c1ccccc1)(c1ccccc1)[C@H](Oc1nc(C)cc(-c2ccc(C)c(N)c2)n1)C(=O)O", "values": [{"measurement": "IC50", "setting": "[1]", "result": 0.031, "unit": "µM"}]}
{"smiles": "COc1ccc([C@@H]2CCCN2Cc2ccc(-c3ccccc3[N+](=O)[O-])o2)cc1", "values": [{"measurement": "IC50", "setting": "[2]", "result": 42, "unit": "µM"}]}
{"smiles": "NCCc1c(-c2ccccc2)n(-c2ccccc2)c2ccccc12", "values": [{"measurement": "Kd", "setting": "[3]", "result": 316, "unit": "µM"}]}
{"smiles": "Brc1ccc(Nc2nc(-c3ccccc3)cs2)cc1", "values": [{"measurement": "Kd", "setting": "[4]", "result": 2.9, "unit": "µM"}, {"measurement": "Kd", "setting": "[5]", "result": 5.7, "unit": "µM"}]}
{"smiles": "N#Cc1c(-c2ccc(O)c(O)c2)cc(-c2ccc(F)cc2)nc1N", "values": [{"measurement": "EC50", "setting": "[6]", "result": 3.1, "unit": "µM"}, {"measurement": "Kd", "setting": "[7]", "result": 1.8, "unit": "µM"}]}
{"smiles": "CCCCC1=C(C)C(=O)[C@@](C)(CN2c3ccccc3[C@]3(O)CCO[C@H]23)C1=O", "values": [{"measurement": "Kd", "setting": "[8]", "result": 288, "unit": "µM"}]}
{"smiles": "COC(=O)[C@H](Cc1ccc(C#Cc2ccccc2)cc1)NC(=O)C[C@H]1CCCN(C(=N)N)C1", "values": [{"measurement": "IC50", "setting": "[9]", "result": 3, "unit": "µM"}]}
{"smiles": "CCCCc1ccc(OC)c(CN2c3ccccc3[C@]3(O)C[C@@H](COC(=O)c4ccccc4)O[C@H]23)c1OC", "values": [{"measurement": "fold change (FC)", "setting": "[10]", "result": 5}]}
{"smiles": "N#Cc1ccc(NC(=O)Nc2ccc(Oc3ccc(NC(=O)Nc4ccc(C#N)cc4)cc3)cc2)cc1", "values": [{"measurement": "EC50", "setting": "[11]", "result": 0.25, "unit": "µM"}]}
{"smiles": "COc1ccc([C@H]2CCCN2Cc2ccc(-c3ccccc3[N+](=O)[O-])o2)cc1", "values": [{"measurement": "IC50", "setting": "[2]", "result": 43, "unit": "µM"}]}
{"smiles": "CCCCc1ccc(O)c(CN2c3ccccc3[C@]3(O)C[C@@H](COC(=O)c4ccccc4)O[C@H]23)c1O", "values": [{"measurement": "fold change (FC)", "setting": "[10]", "result": 5}, {"measurement": "Kd", "setting": "[12]", "result": 36.9, "unit": "µM"}]}
{"smiles": "CCCCc1ccc(O)c(Cn2cc(CC(O)COC(=O)c3ccccc3)c3ccccc32)c1O", "note": "(stereo unspecified)", "values": [{"measurement": "fold change (FC)", "setting": "[10]", "result": 5}, {"measurement": "Kd", "setting": "[12]", "result": 29, "unit": "µM"}]}
